The results in this text go back to ChEMBL document CHEMBL1201862, “PubChem BioAssay data set” (2004).

Structures are written as SMILES. The source made the active and inactive calls.

One test has as its target Phospholipase A2 (Homo sapiens, UniProt P04054). The format is functional.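 Also: confirmatory dose-response counterscreen on phospholipase A2, testing hits that came from an ultra-high-throughput screen for ATG4B inhibitors.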
The nature of test [1]: C. albicans growth with fluconazole, confirmation, fluorescence, retest (AID 2467). Type of test: functional, cell-based.
A short description of test [2]: NIH-3T3 fibroblast cytotoxicity, dose response, cytotoxicity control, cell-based, fluorescence, Alamar Blue, secondary assay (AID 2327).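 Also: NIH-3T3 mouse fibroblasts cultured with fluconazole at 8 µg/mL.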 Type of test: functional. (In general: Resazurin is reduced to fluorescent resorufin, in cell work by metabolically active cells.)
The target in another test is Cysteine protease ATG4B (Homo sapiens, UniProt Q9Y4P1). The format is functional.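 Also: Fluorescence-based dose-response confirmation assay measuring inhibition of ATG4B activity.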
Chain of Cysteine protease ATG4B (Q9Y4P1 whole entry): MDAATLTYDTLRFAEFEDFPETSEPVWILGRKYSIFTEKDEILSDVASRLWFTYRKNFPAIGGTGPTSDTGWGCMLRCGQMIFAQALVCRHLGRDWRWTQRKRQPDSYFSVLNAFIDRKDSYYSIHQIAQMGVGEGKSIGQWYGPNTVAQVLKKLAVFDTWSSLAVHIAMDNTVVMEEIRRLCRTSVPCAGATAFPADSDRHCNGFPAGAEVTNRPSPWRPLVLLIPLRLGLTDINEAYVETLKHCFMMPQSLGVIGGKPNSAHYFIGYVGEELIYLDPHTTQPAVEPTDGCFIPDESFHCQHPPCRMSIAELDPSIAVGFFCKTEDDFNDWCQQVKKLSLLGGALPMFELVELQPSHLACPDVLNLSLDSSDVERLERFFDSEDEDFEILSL
Test [3] deals with DNA dC->dU-editing enzyme APOBEC-3A (Homo sapiens, UniProt P31941). As to the kind of experiment: APOBEC3A DNA deaminase inhibitors, dose response, biochemical (AID 504722). The format is functional.
Chain of DNA dC->dU-editing enzyme APOBEC-3A (P31941 whole entry): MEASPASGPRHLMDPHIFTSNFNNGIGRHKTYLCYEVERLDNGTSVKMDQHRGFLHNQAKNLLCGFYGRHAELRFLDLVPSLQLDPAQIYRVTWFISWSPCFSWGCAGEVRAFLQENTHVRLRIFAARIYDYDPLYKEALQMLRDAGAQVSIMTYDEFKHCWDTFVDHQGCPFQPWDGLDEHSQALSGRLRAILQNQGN
In test [4] the target is DNA dC->dU-editing enzyme APOBEC-3G (Homo sapiens, UniProt Q9HC16). The test can be described thus: Dose Response confirmation of small molecule APOBEC3G DNA Deaminase Inhibitors via a fluorescence-based single-stranded DNA deaminase assay. [Related pubchem assays (depositor defined):AID493012, AID493028]. Type of test: functional.
Chain of DNA dC->dU-editing enzyme APOBEC-3G (Q9HC16 whole entry): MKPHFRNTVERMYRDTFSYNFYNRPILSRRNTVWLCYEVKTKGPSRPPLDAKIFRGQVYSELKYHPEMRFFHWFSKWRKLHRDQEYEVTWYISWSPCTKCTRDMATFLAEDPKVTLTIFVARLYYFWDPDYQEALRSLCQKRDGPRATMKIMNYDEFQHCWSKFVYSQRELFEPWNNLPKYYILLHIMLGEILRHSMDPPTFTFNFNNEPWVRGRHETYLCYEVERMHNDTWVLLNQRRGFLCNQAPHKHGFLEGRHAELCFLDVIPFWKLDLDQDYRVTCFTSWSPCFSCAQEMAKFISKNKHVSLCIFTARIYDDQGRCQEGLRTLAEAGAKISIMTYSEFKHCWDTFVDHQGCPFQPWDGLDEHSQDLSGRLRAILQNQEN
Test [5] has as its target Glucose-6-phosphate 1-dehydrogenase (Homo sapiens, UniProt P11413). As to the kind of experiment: human G6PD enzyme inhibitors, dose response, selectivity assay for P. falciparum G6PD inhibitor project, biochemical, fluorescence (AID 504792). The format is functional.
Test [6] concerns the target Peroxisome proliferator-activated receptor gamma/Nuclear receptor coactivator 2 (Homo sapiens, UniProt P37231). As to the kind of experiment: TR-FRET dose response biochemical High Throughput Screening assay for agonists of the steroid receptor coactivator 2 (SRC-2) recruitment by the peroxisome proliferator-activated receptor gamma (PPAR gamma): non-selective agonists. [Related pubchem assays: 1297, 1032 ]. Type of test: functional. For orientation: Time-resolved FRET reads energy transfer from a long-lived donor to a nearby acceptor.

In test [7] the target is Peroxisome proliferator-activated receptor gamma/Nuclear receptor coactivator 1 (Homo sapiens, UniProt P37231). As to the kind of experiment: TR-FRET dose response biochemical High Throughput Screening assay for agonists of the steroid receptor coactivator 1 (SRC-1) recruitment by the peroxisome proliferator-activated receptor gamma (PPAR gamma): non-selective agonists. [Related pubchem assays (depositor defined):AID1300, AID1808, AID504735, AID631]. Type of test: protein assay.
Chain of Peroxisome proliferator-activated receptor gamma/Nuclear receptor coactivator 1 (P37231 whole entry): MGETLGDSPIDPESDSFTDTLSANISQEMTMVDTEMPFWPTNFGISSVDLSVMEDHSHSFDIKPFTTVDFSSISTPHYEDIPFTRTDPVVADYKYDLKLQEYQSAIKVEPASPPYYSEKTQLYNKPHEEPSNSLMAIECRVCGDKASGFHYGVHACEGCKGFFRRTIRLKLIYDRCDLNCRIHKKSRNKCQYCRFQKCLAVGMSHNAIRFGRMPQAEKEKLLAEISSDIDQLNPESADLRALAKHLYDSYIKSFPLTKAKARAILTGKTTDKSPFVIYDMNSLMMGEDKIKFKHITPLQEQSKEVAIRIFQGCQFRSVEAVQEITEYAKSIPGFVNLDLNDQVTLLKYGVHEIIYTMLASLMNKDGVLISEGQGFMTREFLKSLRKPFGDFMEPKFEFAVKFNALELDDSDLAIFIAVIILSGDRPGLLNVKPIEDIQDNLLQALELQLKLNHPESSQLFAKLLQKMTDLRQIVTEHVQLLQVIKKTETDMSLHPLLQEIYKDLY
Chain of Peroxisome proliferator-activated receptor gamma/Nuclear receptor coactivator 1 (Q15788 whole entry, further chain): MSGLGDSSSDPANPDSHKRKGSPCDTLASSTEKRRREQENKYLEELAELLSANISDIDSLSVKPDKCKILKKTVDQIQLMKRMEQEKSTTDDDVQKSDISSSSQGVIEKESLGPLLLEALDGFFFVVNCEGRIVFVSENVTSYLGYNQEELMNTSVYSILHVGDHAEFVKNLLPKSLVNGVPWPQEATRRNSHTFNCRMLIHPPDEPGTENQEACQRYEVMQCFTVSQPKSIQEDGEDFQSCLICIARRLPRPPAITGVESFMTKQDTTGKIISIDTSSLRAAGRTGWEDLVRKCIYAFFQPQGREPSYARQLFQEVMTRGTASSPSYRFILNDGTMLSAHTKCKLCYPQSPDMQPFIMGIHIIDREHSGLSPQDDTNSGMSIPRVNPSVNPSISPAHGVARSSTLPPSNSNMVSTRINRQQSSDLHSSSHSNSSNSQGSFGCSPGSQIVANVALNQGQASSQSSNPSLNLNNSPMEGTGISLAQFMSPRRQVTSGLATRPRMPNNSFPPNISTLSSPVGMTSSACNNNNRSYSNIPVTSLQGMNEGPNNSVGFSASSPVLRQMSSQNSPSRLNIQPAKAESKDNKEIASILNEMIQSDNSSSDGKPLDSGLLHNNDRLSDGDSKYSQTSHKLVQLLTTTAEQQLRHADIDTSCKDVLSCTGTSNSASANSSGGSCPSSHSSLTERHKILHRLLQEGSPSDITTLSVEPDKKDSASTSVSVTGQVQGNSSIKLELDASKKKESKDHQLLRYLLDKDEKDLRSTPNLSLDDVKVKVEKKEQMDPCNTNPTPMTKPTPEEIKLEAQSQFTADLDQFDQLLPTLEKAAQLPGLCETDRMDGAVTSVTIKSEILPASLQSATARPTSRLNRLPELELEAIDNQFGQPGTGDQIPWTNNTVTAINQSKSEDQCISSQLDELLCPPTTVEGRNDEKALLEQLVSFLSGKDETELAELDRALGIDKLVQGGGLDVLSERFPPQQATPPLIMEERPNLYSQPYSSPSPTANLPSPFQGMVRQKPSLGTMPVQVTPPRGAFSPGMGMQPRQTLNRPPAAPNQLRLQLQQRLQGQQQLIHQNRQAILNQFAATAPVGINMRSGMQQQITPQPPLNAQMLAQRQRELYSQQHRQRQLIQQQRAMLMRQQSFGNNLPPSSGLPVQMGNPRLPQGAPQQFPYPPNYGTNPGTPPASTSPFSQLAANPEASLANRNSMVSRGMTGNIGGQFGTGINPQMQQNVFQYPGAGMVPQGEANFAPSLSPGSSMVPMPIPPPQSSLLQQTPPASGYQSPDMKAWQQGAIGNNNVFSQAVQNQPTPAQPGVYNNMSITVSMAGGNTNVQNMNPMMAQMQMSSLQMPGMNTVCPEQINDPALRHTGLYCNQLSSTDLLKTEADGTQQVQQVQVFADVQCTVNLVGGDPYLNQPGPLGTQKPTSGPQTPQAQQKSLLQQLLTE

In test [8] the target is Peroxisome proliferator-activated receptor gamma/Nuclear receptor coactivator 3 (Homo sapiens, UniProt P37231). The test can be described thus: TR-FRET dose response biochemical High Throughput Screening assay for agonists of the steroid receptor coactivator 3 (SRC-3) recruitment by the peroxisome proliferator-activated receptor gamma (PPAR gamma): non-selective agonists. [Related pubchem assays: 1301 (Confirmation screen.), 1048 (Primary screen.)]. The format is functional.
Chain of Peroxisome proliferator-activated receptor gamma/Nuclear receptor coactivator 3 (P37231 whole entry): as the sequence (P37231 whole entry) above
Chain of Peroxisome proliferator-activated receptor gamma/Nuclear receptor coactivator 3 (Q9Y6Q9 whole entry, further chain): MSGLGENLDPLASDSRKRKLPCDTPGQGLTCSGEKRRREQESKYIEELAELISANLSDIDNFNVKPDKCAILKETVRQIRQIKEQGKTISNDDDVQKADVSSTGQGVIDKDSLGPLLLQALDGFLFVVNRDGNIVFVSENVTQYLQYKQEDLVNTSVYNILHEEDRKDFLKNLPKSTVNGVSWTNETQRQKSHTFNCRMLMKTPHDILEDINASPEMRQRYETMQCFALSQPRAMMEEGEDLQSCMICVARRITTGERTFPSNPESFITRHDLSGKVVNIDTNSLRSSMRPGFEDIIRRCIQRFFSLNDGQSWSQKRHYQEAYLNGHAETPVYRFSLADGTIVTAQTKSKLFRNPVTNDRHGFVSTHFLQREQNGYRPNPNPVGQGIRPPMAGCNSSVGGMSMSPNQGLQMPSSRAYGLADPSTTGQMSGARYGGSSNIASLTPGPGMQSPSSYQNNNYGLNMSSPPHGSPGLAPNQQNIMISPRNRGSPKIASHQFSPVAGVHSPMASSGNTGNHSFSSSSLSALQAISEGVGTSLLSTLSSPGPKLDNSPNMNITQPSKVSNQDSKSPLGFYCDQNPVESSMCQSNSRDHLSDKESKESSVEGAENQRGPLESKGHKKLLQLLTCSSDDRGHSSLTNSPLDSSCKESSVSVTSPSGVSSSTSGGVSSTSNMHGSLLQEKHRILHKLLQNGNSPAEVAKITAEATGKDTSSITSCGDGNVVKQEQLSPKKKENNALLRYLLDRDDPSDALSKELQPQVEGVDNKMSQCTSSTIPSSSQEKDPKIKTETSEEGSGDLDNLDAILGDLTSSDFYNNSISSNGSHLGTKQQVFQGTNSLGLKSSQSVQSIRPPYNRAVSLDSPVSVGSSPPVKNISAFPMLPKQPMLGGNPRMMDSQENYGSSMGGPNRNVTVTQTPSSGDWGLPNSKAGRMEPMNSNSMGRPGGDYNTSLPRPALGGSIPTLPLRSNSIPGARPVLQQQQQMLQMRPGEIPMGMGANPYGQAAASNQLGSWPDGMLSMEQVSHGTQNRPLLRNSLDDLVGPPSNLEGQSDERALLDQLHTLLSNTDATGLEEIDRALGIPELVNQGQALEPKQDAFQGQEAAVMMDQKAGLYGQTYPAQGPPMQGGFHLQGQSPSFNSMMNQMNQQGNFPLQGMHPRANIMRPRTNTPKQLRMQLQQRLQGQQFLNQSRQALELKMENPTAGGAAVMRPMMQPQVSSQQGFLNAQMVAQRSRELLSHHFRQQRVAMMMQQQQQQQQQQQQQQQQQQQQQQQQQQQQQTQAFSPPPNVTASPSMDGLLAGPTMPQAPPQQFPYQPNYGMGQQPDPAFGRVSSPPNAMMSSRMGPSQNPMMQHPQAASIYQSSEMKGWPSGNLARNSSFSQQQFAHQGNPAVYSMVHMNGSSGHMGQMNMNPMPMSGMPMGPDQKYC

Test [9] deals with Streptococcus sp. 'group A'. The test can be described thus: growth inhibition of control SK(-) GAS strain, dose response, counter-screen for streptokinase expression inhibitor project, luminescence, kanamycin, BacTiterGlo, confirmation (AID 1900). The format is functional, organism-based.
The target in a further test is T1, Streptokinase A (Streptococcus pyogenes serotype M1, UniProt P10520).
T1 sequence (P10520 whole entry): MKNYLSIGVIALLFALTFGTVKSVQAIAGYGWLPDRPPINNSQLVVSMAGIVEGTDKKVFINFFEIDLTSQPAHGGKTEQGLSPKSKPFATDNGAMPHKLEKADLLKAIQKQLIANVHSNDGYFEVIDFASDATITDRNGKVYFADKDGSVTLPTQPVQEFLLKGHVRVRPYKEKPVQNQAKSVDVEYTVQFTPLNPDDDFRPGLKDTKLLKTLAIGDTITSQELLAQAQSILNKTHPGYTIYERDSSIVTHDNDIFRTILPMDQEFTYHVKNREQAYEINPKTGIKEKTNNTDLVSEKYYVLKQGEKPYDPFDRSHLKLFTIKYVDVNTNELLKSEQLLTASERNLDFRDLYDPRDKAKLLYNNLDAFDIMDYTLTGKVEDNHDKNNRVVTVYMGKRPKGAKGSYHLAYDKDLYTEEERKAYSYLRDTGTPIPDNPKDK
As to the kind of experiment: S. pyogenes streptokinase expression inhibitors, potency, dose response, plasminogen activation absorbance, OD405 (AID 1914).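 Also: secreted streptokinase activity via plasminogen activation per viability signal from cell pellet.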 The format is functional, Streptococcus pyogenes M1 GAS.

In a further test the test system is Streptococcus. The test can be described thus: Group A Streptococcus viability loss, dose response, counter-screen for streptokinase expression inhibitor project, luminescence, BacTiterGlo (AID 1915).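 Also: potency for reduction of bacterial viability or growth.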 Type of test: functional, organism-based. On the technique in general: Counterscreens check selectivity or assay interference.
A short description of test [10]: cytotoxicity toward NIH3T3 fibroblasts, dose response, counter-screen, cell-based, ATP luminescence, mouse fibroblasts (AID 2010).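 Also: cells exposed to compound for about 90 hours before reading.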 The format is functional.
Test [11] is described as follows: inhibitors of intracellular T. cruzi replication, confirmation, NIH3T3 host cells, beta-gal luminescence (AID 2044).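 Also: intracellular parasites grown in NIH/3T3 mouse fibroblasts as host cells; luminescent beta-galactosidase reporter signal from transgenic T. cruzi replicating inside host cells; inhibitors lower the luminescence signal.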 The format is functional, cell-based.
In test [12] the target is DNA damage-inducible transcript 3 protein (Mus musculus, UniProt P35639). The format is functional, Cricetulus griseus.
Test [13] is described as follows: microbe, parasite or virus in culture. Type of test: functional. To be noted: Mycobacterium tuberculosis.
Test [14] is described as follows: ZM109 Env clade C HIV-1 fusion inhibitors, dose response, HeLa effector, CEM target cells, luciferase, cherry-pick (AID 652058). The format is functional, cell-based.
Test [15] has as its target C-C chemokine receptor type 6 (Homo sapiens, UniProt P51684). As to the kind of experiment: CCR6 receptor antagonists, dose response, cell-based, luminescent beta-arrestin readout (AID 504728). The format is functional.
Test [16] can be described thus: Counterscreen for IDE inhibitors: Luminescence-based cell-based high throughput dose response assay to identify compounds that are cytotoxic to HEK cells. [Related pubchem assays: 434962 (Primary screen (IDE inhibitors in singlicate)), 449730 (Counterscreen (Cytotoxicity in triplicate)), 435028 (Confirmation (IDE inhibitors in triplicate)) …. The format is functional. To be noted: HEK293.

Test [17] can be described thus: cytotoxicity in KRAS-transformed pancreatic duct cells, primary screen, cell-based, fluorescence, HTS (AID 431).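 Also: cell line used: HPDE-C7K.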 Type of test: functional. To be noted: Homo sapiens.
For another test, the target named is Beta-galactosidase (Escherichia coli, UniProt Q8VNN2). As to the kind of experiment: beta-galactosidase enzyme inhibitors and activators, dose response, artefact control for CCR6 antagonist project, biochemical, E. coli enzyme, set 3 (AID 504712). Type of test: functional.
A short description of test [18]: cytotoxicity in HPDE-C7 cells, cell-based, fluorescence, HTS (AID 430). The format is functional. To be noted: Homo sapiens.
A further test deals with T2, Insulin-degrading enzyme (Homo sapiens, UniProt P14735).
T2 sequence (P14735 whole entry): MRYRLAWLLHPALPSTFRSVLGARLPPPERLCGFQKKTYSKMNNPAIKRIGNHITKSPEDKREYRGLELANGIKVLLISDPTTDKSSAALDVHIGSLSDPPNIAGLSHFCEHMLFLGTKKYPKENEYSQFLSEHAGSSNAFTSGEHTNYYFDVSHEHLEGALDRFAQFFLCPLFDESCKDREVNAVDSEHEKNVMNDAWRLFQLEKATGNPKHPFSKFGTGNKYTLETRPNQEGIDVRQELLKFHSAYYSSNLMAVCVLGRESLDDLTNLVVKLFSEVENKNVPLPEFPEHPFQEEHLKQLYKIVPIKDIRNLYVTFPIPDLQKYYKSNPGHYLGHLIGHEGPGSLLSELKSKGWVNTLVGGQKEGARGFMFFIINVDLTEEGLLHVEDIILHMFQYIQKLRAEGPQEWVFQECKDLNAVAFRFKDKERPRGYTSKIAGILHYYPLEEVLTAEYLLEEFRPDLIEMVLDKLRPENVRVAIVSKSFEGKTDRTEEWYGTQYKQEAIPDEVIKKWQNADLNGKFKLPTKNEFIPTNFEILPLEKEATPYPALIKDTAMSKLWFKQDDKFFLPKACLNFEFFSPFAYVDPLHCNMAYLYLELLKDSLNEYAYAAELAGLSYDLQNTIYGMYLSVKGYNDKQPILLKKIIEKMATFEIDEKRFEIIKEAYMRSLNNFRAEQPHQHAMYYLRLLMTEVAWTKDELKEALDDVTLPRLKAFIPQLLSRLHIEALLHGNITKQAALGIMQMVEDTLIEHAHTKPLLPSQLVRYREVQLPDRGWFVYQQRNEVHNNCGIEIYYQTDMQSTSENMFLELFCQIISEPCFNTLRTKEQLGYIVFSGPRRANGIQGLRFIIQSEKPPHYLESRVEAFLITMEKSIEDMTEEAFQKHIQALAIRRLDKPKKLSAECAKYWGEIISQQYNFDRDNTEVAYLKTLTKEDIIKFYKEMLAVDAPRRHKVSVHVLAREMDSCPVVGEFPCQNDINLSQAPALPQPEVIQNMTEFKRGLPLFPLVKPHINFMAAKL
The test can be described thus: Dose Response: Fluorescence polarization-based cell-based high throughput dose response assay for inhibitors of insulin-degrading enzyme (IDE). [Related pubchem assays: 434962 (Primary screen (IDE inhibitors in singlicate)), 449730 (Counterscreen (Cytotoxicity in triplicate)), 435028 (Confirmation (IDE inhibitors in triplicate)), 434984 (Summary …. Type of test: functional.

A short description of test [19]: inhibitors of HIV Env-driven cell fusion, dose response, cherry-pick (AID 652057). Type of test: functional, cell-based.
A further test concerns INS1. As to the kind of experiment: beta cell apoptosis inhibitors, cytokine rescue, dose response, luminescence, retest (AID 449756).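 Also: cell death triggered by IL-1 beta plus TNF-alpha plus IFN-gamma mixture; protective hits raise ATP signal compared with cytokine alone wells.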 To be noted: Rattus norvegicus. Type of test: functional, cell-based.
Test [20] is described as follows: CEM21 lymphoblast cell cytotoxicity, dose response, cytotoxicity control for viral fusion inhibitor project, CellTiter-Glo luminescence, cherry-picked (AID 652042).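 Also: potency for signal decrease meaning cytotoxicity.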 Type of test: functional, cell-based.
Test [21] can be described thus: inhibitors of clade B AD8 Env fusion, dose response, cell-based, cherry-pick (AID 652062).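 Also: luciferase signal from cell-cell fusion driven by HIV-1 clade B AD8 Env; potency is for inhibitors of fusion seen as a drop in luminescence.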 Type of test: functional.

Chain of Phospholipase A2 (P04054 whole entry): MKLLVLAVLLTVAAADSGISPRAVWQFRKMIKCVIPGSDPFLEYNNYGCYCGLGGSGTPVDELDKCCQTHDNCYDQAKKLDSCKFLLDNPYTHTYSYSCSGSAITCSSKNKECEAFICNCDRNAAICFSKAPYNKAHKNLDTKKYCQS

As a reminder, the IC50 is the concentration that gives 50% inhibition. For orientation: EC50 means the concentration at which the effect is half-maximal. Consider `CCOC(=O)c1c(-c2ccccc2)oc2cc(Br)c(O)c(C=O)c12`, for which the IC50 on Phospholipase A2 was 3.36 µM (active); at Cysteine protease ATG4B it was 9.27 µM (active). In addition, the EC50 in test [1] is 2.69 µM (active); in test [2], 4.74 µM (inconclusive).
For `C=CCn1c(OCc2ccccc2)n[nH]c1=S`, the IC50 in [3] is > 100 µM (inactive); in [4], 7.3 µM (active).
For the molecule `COc1ccccc1NS(=O)(=O)c1cc(NC(=O)c2ccc(Cl)nc2)ccc1N1CCCC1`, the IC50 in test [3] is > 100 µM (inactive); in test [5], > 80 µM (inactive); in test [4] it was 14.3 µM (active).
With `Cn1c(=O)cc(SCC(=O)N2CCN(c3ccccc3)CC2)c2ccccc21`, the EC50 in test [6] was 185 µM (not active); in [7], > 79.4 µM (inactive); in test [8], > 79.4 µM (not active).
As for `Cn1c(=O)cc(SCC(=O)N2CCN(c3ccccn3)CC2)c2ccccc21`, the values for the EC50 in test [6], in [7] and in test [8] were > 79.4 µM (not active), > 79.4 µM (inactive) and > 79.4 µM (not active), respectively.
As to `COc1ccc(-c2nnc(CSc3nc4ccccc4c(=O)n3CC(C)C)o2)cc1OC`, the IC50 on Phospholipase A2 was 1.19 µM (active); at Cysteine protease ATG4B, 6.22 µM (active).
`O=C(Nc1ccccc1-c1nc2ccccc2[nH]1)c1sc2ccccc2c1Cl`: the EC50 in [9] was 21.3 µM (active); on Streptokinase A it was > 150 µM (not active); in the test on Streptococcus, > 150 µM (not active); in test [10], > 60 µM (inconclusive); in test [11], 2.1 µM (active). The “Absolute IC50 (CHOP)” value in [12] is 10 µM.
Usually AC50 stands for the concentration giving half of the maximal activity seen. Turning to `CCCn1c(Nc2nc3ccccc3n2C)nc2ccccc21`, the CC50 in test [13] was 13.4 µM (active). For the same molecule, the EC50 in [1] was 1.33 µM (active); in [17], 7.01 µM (active); in test [18] it was 6.72 µM (active); in test [2] it was > 160 µM (inconclusive). Further, the AC50 in test [14] was 8.59 µM (active); in test [19] it was 10.1 µM (active); with INS1 it was 7.73 µM (active); in [20], 8.31 µM (active); in [21], 10.4 µM (active). In addition, the IC50 in test [15] is > 66.6 µM (inactive); in test [16], 14.4 µM (not active); on Beta-galactosidase, > 66.6 µM (inactive); on Insulin-degrading enzyme it was > 55.9 µM (not active).
